{
  "source": "paper PMC12867150",
  "about": "“A fungi-derived cyclic peptide enhances Th9-mediated antitumor immunity by targeting ZAP70 and SREBP1” (The Journal of Clinical Investigation, 2025)",
  "assay_type_in_all_cases": "cell-based, mouse",
  "key": {"gene sets in Th9 cells": {"system": "gene sets in Th9 cells", "experiment": "GSEA / pathway enrichment of RNA-seq data", "details": "result in words", "experimental": "GSEA was performed using the clusterProfiler R package (v4.12.6), with curated gene sets obtained from the Gene Ontology and Kyoto Encyclopedia of Genes and Genomes databases. Enrichment plots were generated using the GseaVis R package (v0.1.0) to facilitate data visualization."}, "Th9 cells [1]": {"system": "Th9 cells", "experiment": "IL-9+ Th9 cells with MEK or ERK inhibition (Figure 5H)", "details": "for IL-9 (flow cytometric quantification): Figure 5H, individual replicates, (n = 5)", "experimental": "(A) Identification and ranking of EpA-interacting proteins by affinity pulldown and LC-MS/MS, ordered by in silico binding energy predictions. […] (E) Flow-cytometric analysis of phosphorylated ZAP70 in Th9 cells 10 minutes after TCR activation (mean ± SEM, n = 3). (F) Pathway enrichment analysis of RNA-seq data showing MAPK/ERK-related pathways in EpA-treated Th9 cells. (G) Immunoblot analysis of total and phosphorylated MEK1/2 and ERK1/2 in control and EpA-treated Th9 cells. (H–L) Functional consequences of MEK or ERK inhibition in EpA-treated Th9 cells. […] Data in H–K are shown as mean ± SEM (n = 5) and in L as mean ± SEM (n = 3). Statistical significance was determined using 1-way ANOVA followed by Tukey’s test (E, H–L). *P < 0.05, **P < 0.01, ***P < 0.001, ****P < 0.0001.\n(§1) T cell polarization was initiated under plate-bound anti-CD3 (2 μg/mL, clone 17A2, BioXCell, catalog BE0002) and soluble anti-CD28 (1 μg/mL, clone 37.51, BioXCell, catalog BE0015-1) stimulation, with the addition of cytokines and neutralizing antibodies specific to each subset. For Th9 cells, these included IL-4 (10 ng/mL, Peprotech, catalog 400-04), TGF-β (1 ng/mL, EPOTO Biotech, catalog HF-2021), anti–IL-12 (5 μg/mL, clone C17.8, BioXCell, catalog BE0051), and anti–IFN-γ (10 μg/mL, clone XMG1.2, BioXCell, catalog BE0055); for Th1 cells, these included IL-12 (10 ng/mL, GenScript, catalog Z03211-50) and anti–IL-4 (5 μg/mL, clone 11B11, BioXCell, catalog BE0045); for Th2 cells, these included IL-4 (50 ng/mL), anti–IFN-γ (20 μg /mL), anti–IL-12 (5 μg/mL), Th17 cells: IL-6 (20 ng/mL, EPOTO Biotech, catalog MF-1006), TGF-β (1 ng/mL), IL-1β (10 ng/mL, Peprotech, catalog AF-211-11B), anti–IFN-γ (10 μg/mL), anti–IL-12 (5 μg/mL), and anti–IL-4 (5 μg/mL); and for Tregs, these included TGF-β (3 ng/mL). After 3 days of initial culture, cells were either collected for downstream assays or continued in extended culture with refreshed cytokines to maintain lineage commitment.\nThe following pharmacological inhibitors were used at the indicated final concentrations: trametinib (MEK1/2 inhibitor; Selleck, catalog S4484) at 10 nM; temuterkib (ERK1/2 inhibitor; MCE, catalog HY-101494) at 100 nM; and fatostatin hydrobromide (SREBP inhibitor; MCE, catalog HY-14452A) at 5 μM. Dead cells were detected using Fixable Viability Dye eFluor 780 (eBioscience, catalog 65-0865)."}, "Th9 cells [2]": {"system": "Th9 cells", "experiment": "Intracellular ATP assay, luminescence (Figure 4L)", "details": "result in words", "experimental": "Intracellular adenosine triphosphate (ATP) levels were measured using a chemiluminescent ATP assay kit (Beyotime, catalog S0026) according to the manufacturer’s protocol. Briefly, cells were lysed and incubated with the luciferase-based detection reagent, and the resulting luminescent signal was detected using an Infinite M200 multimode microplate reader (TECAN). ATP concentrations were calculated based on a standard curve and normalized to cell number or protein content where applicable."}, "Th2 cells": {"system": "Th2 cells", "experiment": "Th2 polarization, IL-4 by flow cytometry (Figure 1G)", "experimental": "Naive CD4^+ T cells were isolated from the spleens of C57BL/6J or CD45.1^+ OT-II mice using the MojoSort Mouse CD4 Naive T Cell Isolation Kit (BioLegend, catalog 480040), following the manufacturer’s protocol. Purified cells were cultured in RPMI-1640 medium supplemented with 10% FBS, 1% penicillin-streptomycin, and 0.1% β-mercaptoethanol (Gibco, catalog 21985023).\nas §1, with “After 3 days of initial culture, cells were either collected for downstream assays or continued in extended culture with refreshed cytokines to maintain lineage commitment.” left out"}},
  "note": "Several values for one entry are separate records, joined by “and”; a condition that tells them apart may be missing. Equal values may be shown once.",
  "data": [
    {"substance": "anteiso-C15 Leu7 surfactin [EpA]", "values": [
      {"measurement": "glycolytic and carbon metabolism pathways", "setting": "gene sets in Th9 cells", "value": "significant enrichment"},
      {"measurement": "lipid-related pathways", "setting": "gene sets in Th9 cells", "value": "markedly downregulated"},
      {"measurement": "oxidative phosphorylation-related gene sets", "setting": "gene sets in Th9 cells", "value": "upregulation"},
      {"measurement": "IL-9 (flow cytometric quantification)", "setting": "Th9 cells [1]; EpA + ERKin combination", "value": "5.8 and 5.06 and 4.72 and 7.22 and 6.36"},
      {"measurement": "IL-9 (flow cytometric quantification)", "setting": "Th9 cells [1]; EpA + MEKin combination", "value": "0.49 and 3.03 and 0.46 and 0.71 and 0.77"},
      {"measurement": "IL-9 (flow cytometric quantification)", "setting": "Th9 cells [1]; single agent", "value": "50.6 and 51.1 and 72.2 and 66.2 and 42.3"},
      {"measurement": "IL-9 production", "setting": "Th9 cells [1]; trametinib 10 nM, temuterkib 100 nM, result in words", "value": "unable to restore it"},
      {"measurement": "intracellular ATP levels", "setting": "Th9 cells [2]", "value": "significantly elevated"},
      {"measurement": "IL-4 expression under Th2 polarization", "setting": "Th2 cells; EpA 10 μM, individual replicates, n = 4", "value": "38.3947 and 41.0302 and 36.7821 and 38.8006"},
      {"measurement": "effect on Th2 differentiation", "setting": "Th2 cells; result in words", "value": "only a minor increase in Th2 differentiation"}
    ]}
  ]
}
